In ChEMBL document CHEMBL4483862, “Open-source discovery of chemical leads for next-generation chemoprotective antimalarials” (2018):

System: Plasmodium berghei
Experiment: Luciferase/luciferin-expressing antifolate-resistant parasites were used to infect a culture of HepG2 cells that were pre-incubated with compounds. Infected hepatocytes emit light due to the luciferase reaction. Assay results are presented as the percent inhibition of light emission compared to control. […]
Assay type: functional
Conditions: sporozoite; for IC90: read-out: LUCIFERASE INFECTION ASSAY - IC90

| SMILES | IC90 [µM] | other results |
| --- | --- | --- |
| O=C(Nc1ccc(Cl)c(Cl)c1)Nc1ccc(Cl)c(Cl)c1 | 1.35 | IC50 (HEPG2TOX_HILL_SLOPE 2.86, HEPG2TOX_R_SQUARED 0.877, PBLUC_HILL_SLOPE 1.38, PBLUC_R_SQUARED 0.733, read-out: LUCIFERASE INFECTION ASSAY - IC50): 0.275 µM |
| COc1ccc(S(=O)(=O)NN(C)c2nc(C(F)(F)F)nc3ccccc23)cc1 | 7.15 | IC50 (HEPG2TOX_HILL_SLOPE 2.85, HEPG2TOX_R_SQUARED 0.931, PBLUC_HILL_SLOPE 2.16, PBLUC_R_SQUARED 0.738, read-out: LUCIFERASE INFECTION ASSAY - IC50): 2.59 µM |
| COc1cc(-c2cn3c(-c4ccc5ncccc5c4)cnc3cn2)ccc1O | 4.57 | IC50 (HEPG2TOX_HILL_SLOPE 2.88, HEPG2TOX_R_SQUARED 0.967, PBLUC_HILL_SLOPE 7.35, PBLUC_R_SQUARED 0.638, read-out: LUCIFERASE INFECTION ASSAY - IC50): 3.39 µM |
| Cc1ccsc1/C=N/Nc1nc2ccccc2nc1C(F)(F)F | 9.51 | IC50 (HEPG2TOX_HILL_SLOPE 2.86, HEPG2TOX_R_SQUARED 0.79, PBLUC_HILL_SLOPE 19.7, PBLUC_R_SQUARED 0.0461, read-out: LUCIFERASE INFECTION ASSAY - IC50): 8.5 µM |
| Cc1cnc(NC(=O)c2ccccc2NS(=O)(=O)c2cccc(C(F)(F)F)c2)s1 | > 10 | IC50 (HEPG2TOX_HILL_SLOPE 2.85, HEPG2TOX_R_SQUARED 0.86, read-out: LUCIFERASE INFECTION ASSAY - IC50): > 10 µM |
| Cc1nn(-c2ccccc2)c(C)c1C(=O)Nc1nc2c(s1)CCCC2 | 4.22 | IC50 (HEPG2TOX_HILL_SLOPE 2.86, HEPG2TOX_R_SQUARED 0.355, PBLUC_HILL_SLOPE 1.92, 0.823, PBLUC_R_SQUARED 0.870, 0.934, read-out: LUCIFERASE INFECTION ASSAY - IC50): 0.574 µM |
| CCCCNC(=O)c1c(NC(=O)c2cc(F)ccc2F)nc2ccccn12 | 3.57 | IC50 (HEPG2TOX_HILL_SLOPE 2.83, HEPG2TOX_R_SQUARED 0.745, PBLUC_HILL_SLOPE 13.2, PBLUC_R_SQUARED 0.5, read-out: LUCIFERASE INFECTION ASSAY - IC50): 3.03 µM |
| CCN(CC)c1ccc(NC(=O)c2cccc(F)c2)cc1 | 6.44 | IC50 (HEPG2TOX_HILL_SLOPE 2.87, HEPG2TOX_R_SQUARED 0.815, PBLUC_HILL_SLOPE 5.54, PBLUC_R_SQUARED 0.522, read-out: LUCIFERASE INFECTION ASSAY - IC50): 4.33 µM |
| CC(C)Cc1ccc(CN2CCC3(CC2)C(=O)N(CC(C)C)C(=O)N3C)cc1 | > 8.56 | IC50 (HEPG2TOX_HILL_SLOPE 2.88, HEPG2TOX_R_SQUARED 0.972, PBLUC_HILL_SLOPE 3.02, PBLUC_R_SQUARED 0.492, read-out: LUCIFERASE INFECTION ASSAY - IC50): 5.03 µM |
| COc1ccc(-c2nc(C(=O)N3CCc4ccccc43)cs2)cc1OC | 2.46 | IC50 (HEPG2TOX_HILL_SLOPE 2.84, HEPG2TOX_R_SQUARED 0.79, PBLUC_HILL_SLOPE 2.13, PBLUC_R_SQUARED 0.686, read-out: LUCIFERASE INFECTION ASSAY - IC50): 0.875 µM |
| N#CC(C#N)=NNc1cc(Cl)cc(Cl)c1 | 0.565 | IC50 (HEPG2TOX_HILL_SLOPE 2.85, HEPG2TOX_R_SQUARED 0.913, PBLUC_HILL_SLOPE 19.7, PBLUC_R_SQUARED 0.581, read-out: LUCIFERASE INFECTION ASSAY - IC50): 0.505 µM |
| c1ccc(C(Nc2ncnc3sccc23)c2cccs2)cc1 (configuration not stated) | > 10 | IC50 (HEPG2TOX_HILL_SLOPE 2.82, HEPG2TOX_R_SQUARED 0.952, PBLUC_HILL_SLOPE 3.44, PBLUC_R_SQUARED 0.151, read-out: LUCIFERASE INFECTION ASSAY - IC50): 7.24 µM |
| COc1ccc(F)cc1CN(Cc1ccc(C(=O)NC2CC2)cc1)Cc1ccco1 | 0.722 | IC50 (HEPG2TOX_HILL_SLOPE 2.87, HEPG2TOX_R_SQUARED 0.785, PBLUC_HILL_SLOPE 1.38, 16.4, PBLUC_R_SQUARED 0.804, 0.717, read-out: LUCIFERASE INFECTION ASSAY - IC50): 0.286 µM |
| COc1ccc(Sc2nc(N(C)C)ncc2OC)cc1 | > 11.3 | IC50 (HEPG2TOX_HILL_SLOPE 2.8, HEPG2TOX_R_SQUARED 0.967, PBLUC_HILL_SLOPE 2.43, PBLUC_R_SQUARED 0.609, read-out: LUCIFERASE INFECTION ASSAY - IC50): 6.22 µM |
| CCCCNC(=O)c1c(NC(=O)c2cccc(OC)c2)nc2ccccn12 | 4.95 | IC50 (HEPG2TOX_HILL_SLOPE 2.8, HEPG2TOX_R_SQUARED 0.959, PBLUC_HILL_SLOPE 5.29, PBLUC_R_SQUARED 0.462, read-out: LUCIFERASE INFECTION ASSAY - IC50): 3.27 µM |
| O=C(c1cnc(Nc2cccc(Oc3ccccc3)c2)[nH]1)c1ccccc1F | 3.36 | IC50 (HEPG2TOX_HILL_SLOPE 2.89, HEPG2TOX_R_SQUARED 0.712, PBLUC_HILL_SLOPE 12, PBLUC_R_SQUARED 0.715, read-out: LUCIFERASE INFECTION ASSAY - IC50): 2.8 µM |

| SMILES | IC90 [µM] | other results |
| --- | --- | --- |
| O=C(NNC(=O)c1cnn(-c2ccccc2)c1C(F)(F)F)c1ccc2ccccc2n1 | 3.75 | IC50 (HEPG2TOX_HILL_SLOPE 2.84, HEPG2TOX_R_SQUARED 0.957, PBLUC_HILL_SLOPE 16.4, PBLUC_R_SQUARED 0.688, read-out: LUCIFERASE INFECTION ASSAY - IC50): 3.28 µM |
| C[C@]12CCC3C(CC[C@]4(O)C[C@@H](O)CC[C@]34/C=N/O)[C@@]1(O)CC[C@@H]2C1=CC(=O)OC1 (some centres not stated) | 0.165 | IC50 (HEPG2TOX_HILL_SLOPE 2.86, HEPG2TOX_R_SQUARED 0.935, PBLUC_HILL_SLOPE 2.2, PBLUC_R_SQUARED 0.866, read-out: LUCIFERASE INFECTION ASSAY - IC50): 0.0609 µM |
| COc1ccc(-c2csc3ncnc(NCC(=O)NC(C)C)c23)cc1 | > 10 | IC50 (HEPG2TOX_HILL_SLOPE 2.82, HEPG2TOX_R_SQUARED 0.984, PBLUC_HILL_SLOPE 1.1, PBLUC_R_SQUARED 0.732, read-out: LUCIFERASE INFECTION ASSAY - IC50): 2.59 µM |
| N#Cc1ccc(NCCNc2nc3ccccc3s2)nc1 | 4.32 | IC50 (HEPG2TOX_HILL_SLOPE 2.81, HEPG2TOX_R_SQUARED 0.729, PBLUC_HILL_SLOPE 4.52, PBLUC_R_SQUARED 0.618, read-out: LUCIFERASE INFECTION ASSAY - IC50): 2.66 µM |
| COc1cc(Nc2ncc3c(n2)CCN(C(=O)Nc2ccc(OC(F)(F)F)cc2)C3)cc(OC)c1OC | > 6.35 | IC50 (HEPG2TOX_HILL_SLOPE 2.89, HEPG2TOX_R_SQUARED 0.596, read-out: LUCIFERASE INFECTION ASSAY - IC50): > 6.35 µM |
| c1ccc(CNc2nc3cnc(-c4ccc5ccccc5c4)cc3[nH]2)cc1 | > 10 | IC50 (HEPG2TOX_HILL_SLOPE 2.88, HEPG2TOX_R_SQUARED 0.737, PBLUC_HILL_SLOPE 2.3, PBLUC_R_SQUARED 0.668, read-out: LUCIFERASE INFECTION ASSAY - IC50): 4.89 µM |
| COc1ccc(/C=C2\N=C(SCc3cn4ccsc4n3)N(c3cc(C)cc(C)c3)C2=O)cc1 | > 10 | IC50 (HEPG2TOX_HILL_SLOPE 2.87, HEPG2TOX_R_SQUARED 0.677, PBLUC_HILL_SLOPE 15.6, PBLUC_R_SQUARED 0.508, read-out: LUCIFERASE INFECTION ASSAY - IC50): 9.65 µM |
| CC(C)(C)c1ccc(-c2cc(NC(=O)c3ccc(Cl)cc3Cl)[nH]n2)cc1 | 3.08 | IC50 (HEPG2TOX_HILL_SLOPE 2.82, HEPG2TOX_R_SQUARED 0.976, PBLUC_HILL_SLOPE 3.98, PBLUC_R_SQUARED 0.745, read-out: LUCIFERASE INFECTION ASSAY - IC50): 1.77 µM |
| CCC(C)NC(=O)c1c(NC(=O)c2ccccc2Cl)nc2ccc(C)cn12 (configuration not stated) | 3.78 | IC50 (HEPG2TOX_HILL_SLOPE 2.82, HEPG2TOX_R_SQUARED 0.923, PBLUC_HILL_SLOPE 8.99, PBLUC_R_SQUARED 0.855, read-out: LUCIFERASE INFECTION ASSAY - IC50): 2.96 µM |
| COc1ccc(S(=O)(=O)N2CCSc3cc(Cl)ccc32)cc1 | 3.18 | IC50 (HEPG2TOX_HILL_SLOPE 2.85, HEPG2TOX_R_SQUARED 0.925, PBLUC_HILL_SLOPE 20.1, PBLUC_R_SQUARED 0.623, read-out: LUCIFERASE INFECTION ASSAY - IC50): 2.85 µM |
| Cc1c(C#N)c(Sc2ccccc2NC(=O)c2ccco2)nc2ccccc12 | 8.38 | IC50 (HEPG2TOX_HILL_SLOPE 2.88, HEPG2TOX_R_SQUARED 0.661, PBLUC_HILL_SLOPE 2.8, PBLUC_R_SQUARED 0.14, read-out: LUCIFERASE INFECTION ASSAY - IC50): 3.82 µM |
| COC(=O)c1c(OC)ccc(NC(=O)NC(=O)c2c(OC)c(Cl)cc(Cl)c2OC)c1OC | 2.63 | IC50 (HEPG2TOX_HILL_SLOPE 2.83, HEPG2TOX_R_SQUARED 0.683, PBLUC_HILL_SLOPE 11.5, PBLUC_R_SQUARED 0.299, read-out: LUCIFERASE INFECTION ASSAY - IC50): 2.18 µM |
| COc1ccc(C)cc1N1CC(C(=O)Nc2nc3ccccc3[nH]2)CC1=O (configuration not stated) | 4.27 | IC50 (HEPG2TOX_HILL_SLOPE 2.88, HEPG2TOX_R_SQUARED 0.929, PBLUC_HILL_SLOPE 3.77, PBLUC_R_SQUARED 0.362, read-out: LUCIFERASE INFECTION ASSAY - IC50): 2.38 µM |
| CN(C)c1ccc(C(=O)/C=C/c2ccccc2C(F)(F)F)cc1 | 3.94 | IC50 (HEPG2TOX_HILL_SLOPE 2.82, HEPG2TOX_R_SQUARED 0.851, PBLUC_HILL_SLOPE 15.9, PBLUC_R_SQUARED 0.328, read-out: LUCIFERASE INFECTION ASSAY - IC50): 3.43 µM |
| Cc1cccc(C(=O)Nc2ccc(N3CCc4sccc4C3)nc2)c1[N+](=O)[O-] | > 10 | IC50 (HEPG2TOX_HILL_SLOPE 2.87, HEPG2TOX_R_SQUARED 0.919, PBLUC_HILL_SLOPE 1.54, PBLUC_R_SQUARED 0.645, read-out: LUCIFERASE INFECTION ASSAY - IC50): 2.52 µM |
